ChEMBL document CHEMBL1124150, “cis-4-Carboxy-6-(mercaptomethyl)-3,4,5,6-tetrahydropyrimidin-2(1 H)-one , a potent inhibitor of mammalian dihydroorotase” (J Med Chem, 1988)

Tests used:
B16 [1] = test: In vitro antiproliferative activity against Murine B16 Melanoma cells in presence of 1 mM uridine at a dose of 1 mM; format: functional, Mus musculus
B16 [2] = test: In vitro antiproliferative activity against Murine B16 Melanoma cells in presence of 1 mM uridine at a dose of 10 mM; format: functional, Mus musculus
B16 [3] = test: In vitro antiproliferative activity against Murine B16 Melanoma cells without uridine at a dose of 0.01 mM; format: functional, Mus musculus
B16 [4] = test: In vitro antiproliferative activity against Murine B16 Melanoma cells in presence of 1 mM uridine at a dose of 0.01 mM; format: functional, Mus musculus
B16 [5] = test: In vitro antiproliferative activity against Murine B16 Melanoma cells in presence of 1 mM uridine at a dose of 0.1 mM; format: functional, Mus musculus
B16 [6] = test: In vitro antiproliferative activity against Murine B16 Melanoma cells without uridine at a dose of 0.1 mM; format: functional, Mus musculus
B16 [7] = test: In vitro antiproliferative activity against Murine B16 Melanoma cells without uridine at a dose of 1 mM; format: functional, Mus musculus
B16 [8] = test: In vitro antiproliferative activity against Murine B16 Melanoma cells without uridine at a dose of 10 mM; format: functional, Mus musculus
B16 [9] = test: In vitro antiproliferative activity against Murine B16 Melanoma cells in presence of 1 mM uridine at a dose of 2 mM; format: functional, Mus musculus
B16 [10] = test: In vitro antiproliferative activity against Murine B16 Melanoma cells in presence of 1 mM uridine at a dose of 0.12 mM; format: functional, Mus musculus
B16 [11] = test: In vitro antiproliferative activity against Murine B16 Melanoma cells in presence of 1 mM uridine at a dose of 0.25 mM; format: functional, Mus musculus
B16 [12] = test: In vitro antiproliferative activity against Murine B16 Melanoma cells in presence of 1 mM uridine at a dose of 0.5 mM; format: functional, Mus musculus
B16 [13] = test: In vitro antiproliferative activity against Murine B16 Melanoma cells without uridine at a dose of 0.12 mM; format: functional, Mus musculus
B16 [14] = test: In vitro antiproliferative activity against Murine B16 Melanoma cells without uridine at a dose of 0.25 mM; format: functional, Mus musculus
B16 [15] = test: In vitro antiproliferative activity against Murine B16 Melanoma cells without uridine at a dose of 0.5 mM; format: functional, Mus musculus
B16 [16] = test: In vitro antiproliferative activity against Murine B16 Melanoma cells without uridine at a dose of 2 mM; format: functional, Mus musculus
[17] = Dissociation constant was determined; format: physicochemical

In the case of O=C(O)C[C@H](NC(=O)CP(=O)(O)O)C(=O)O [PALA], the Growth inhibition (B16 [1]) is reported as 9%, the Growth inhibition (B16 [2]) is reported as 10% and the Growth inhibition (B16 [3]) is reported as 16%. For the same molecule, the Growth inhibition (B16 [4]) was 6%, the Growth inhibition (B16 [5]) was 6% and the Growth inhibition (B16 [6]) was 79%. It also gave a Growth inhibition (B16 [7]) of 86% and a Growth inhibition (B16 [8]) of 84%.
Molecule COC(=O)[C@@H]1C[C@H](CSC(C)=O)NC(=O)N1 (relative stereo) has a Growth inhibition (B16 [1]) of 83%, a Growth inhibition (B16 [9]) of 98% and a Growth inhibition (B16 [10]) of 0%. It also gave a Growth inhibition (B16 [11]) of 2%, a Growth inhibition (B16 [12]) of 9% and a Growth inhibition (B16 [13]) of 0%. For the same molecule, the Growth inhibition (B16 [14]) was 2%, the Growth inhibition (B16 [15]) was 28% and the Growth inhibition (B16 [7]) was 94%. The Growth inhibition (B16 [16]) was 96%.
Work on O=C1N[C@@H](CS)C[C@@H](C(=O)O)N1 (relative stereo) yielded a Ki [17] of 200 nM, a Growth inhibition (B16 [1]) of 12% and a Growth inhibition (B16 [9]) of 18%. It also gave a Growth inhibition (B16 [10]) of 0%, a Growth inhibition (B16 [11]) of 3% and a Growth inhibition (B16 [12]) of 4%. For the same molecule, the Growth inhibition (B16 [13]) was 4%, the Growth inhibition (B16 [14]) was 9% and the Growth inhibition (B16 [15]) was 14%. For the same molecule, the Growth inhibition (B16 [7]) was 17% and the Growth inhibition (B16 [16]) was 22%.
